Activity calls are given as the source filed them. No cut-off for these calls is given here.
Experiments:
[1] = Induction of NO release in rat H9c2 cells at 10 uM by Griess reagent assay relative to control; assay type: functional
H9c2 [2] = assay: Induction of NO release in rat H9c2 cells under hypoxia condition at 10 uM by Griess reagent assay relative to control; assay type: functional
H9c2 [3] = assay: Induction of NO release in rat H9c2 cells under hypoxia condition at 10 uM measured for first 30 mins by Griess reagent assay relative to control; assay type: functional; details: 0.5 h
H9c2 [4] = assay: Prevention of hypoxia-induced decrease cell viability of rat H9c2 cells at 10 uM by CCK8 assay; assay type: functional, cell-based
H9c2 [5] = assay: Prevention of hypoxia-induced decrease in ATP level in rat H9c2 cells at 10 uM […] (Rvb =- 19.6 nmol/mg); assay type: ADME, cell-based; details: h9c2, 10 µM
H9c2 [6] = assay: Prevention of hypoxia-induced apoptosis in rat H9c2 cells assessed as decrease in late apoptosis and necrosis by measuring reduced red fluorescence at 10 uM incubated for 4 hrs by confocal microscopy with Annexin V-FITC and propidium iodide (PI) double staining analysis; assay type: functional, cell-based
H9c2 [7] = assay: Prevention of hypoxia-induced apoptosis in rat H9c2 cells assessed as decrease in early apoptosis by measuring reduced green fluorescence at 10 uM incubated for 4 hrs by confocal microscopy with Annexin V-FITC and propidium iodide (PI) double staining analysis; assay type: functional, cell-based
Mus musculus [8] = assay: Prevention of myocardial hypoxia injury in isoproterenol-induced male C57 mouse myocardial injury model assessed as heart weight ratio at 5 mg/kg, ip once daily for 3 consecutive days (reference value: 0.60%); assay type: functional; details: time 3 day
Mus musculus [9] = assay: Prevention of myocardial hypoxia injury in isoproterenol-induced male C57 mouse myocardial injury model assessed as pathological myocardial change by cell damage at 5 mg/kg, ip once daily for 3 consecutive days by hematoxylin and eosin staining based analysis; assay type: functional, organism-based; details: time 3.0 day
Mus musculus [10] = assay: Prevention of myocardial hypoxia injury in isoproterenol-induced male C57 mouse myocardial injury model assessed as prevention of lamellar collagen fiber deposition at 5 mg/kg, ip once daily for 3 consecutive days by Masson staining based analysis; assay type: functional, organism-based; details: time 3.0 day
Mus musculus [11] = assay: Prevention of myocardial hypoxia injury in isoproterenol-induced male C57 mouse myocardial injury model assessed as decrease in myocardial size at 5 mg/kg, ip once daily for 3 consecutive days (reference value: 6.47 mm); assay type: functional; details: time 3 day
Mus musculus [12] = assay: Prevention of myocardial hypoxia injury in isoproterenol-induced male C57 mouse myocardial injury model assessed as decrease in heart weight ratio at 5 mg/kg, ip once daily for 3 consecutive days (reference value: 0.68%); assay type: functional; set-up: scale not given: the % may be the effect or the level left; details: time 3 day
Mus musculus [13] = assay: Prevention of myocardial hypoxia injury in isoproterenol-induced male C57 mouse myocardial injury model assessed as pathological myocardial change by measuring myocardial cell damage at 5 mg/kg, IG once daily for 3 consecutive days by hematoxylin and eosin staining based analysis; assay type: functional, organism-based; details: time 3.0 day
Mus musculus [14] = assay: Prevention of myocardial hypoxia injury in isoproterenol-induced male C57 mouse myocardial injury model assessed as prevention of lamellar collagen fiber deposition at 5 mg/kg, IG once daily for 3 consecutive days by Masson staining based analysis; assay type: functional, organism-based; details: time 3.0 day
Mus musculus [15] = assay: Prevention of myocardial hypoxia injury in isoproterenol-induced male C57 mouse myocardial injury model assessed as prevention of bundle collagen fiber deposition at 5 mg/kg, IG once daily for 3 consecutive days by Masson staining based analysis; assay type: functional, organism-based; details: time 3.0 day
Mus musculus [16] = assay: Prevention of myocardial hypoxia injury in isoproterenol-induced male C57 mouse myocardial injury model assessed as decrease in ACE expression at 5 mg/kg, IG once daily for 3 consecutive days by immunohistochemistry; assay type: functional, organism-based; details: time 3.0 day
Mus musculus [17] = assay: Prevention of myocardial hypoxia injury in isoproterenol-induced male C57 mouse myocardial injury model assessed as decrease in mTORC1 expression at 5 mg/kg, IG once daily for 3 consecutive days by immunohistochemistry; assay type: functional, organism-based; details: time 3.0 day
[18] = Toxicity in male C57 mouse assessed as adverse effect at 405 mg/kg, ip measured up to 14 days observation period; assay type: organism-based; details: in vivo, 336 h, time < 14 day

Cc1cc([N+](=O)[O-])ccc1COc1ccc(N(C)N=O)cc1
Activity [1]: <5%
Activity (H9c2 [2]): Active

O=[N+]([O-])O[C@@H]1CO[C@H]2[C@@H]1OC[C@@H]2O [ISOSORBIDE MONONITRATE]
Activity (H9c2 [3]): ~30%
Activity (H9c2 [4]): Active; Partially Restores Cell Viability
Activity (H9c2 [5]): 25.3 nmol/mg
Activity (H9c2 [6]): Active; Reduced Red Fluorescence To Certain Extents
Activity (H9c2 [7]): Active
Activity (Mus musculus [8]): 0.55%
Activity (Mus musculus [9]): inactive
Activity (Mus musculus [10]): inactive
Activity (Mus musculus [11]): 3.93 mm
Activity (Mus musculus [12]): 0.61%
Activity (Mus musculus [13]): inactive
Activity (Mus musculus [14]): Active; N6 More Efficacious Than Ismn
Activity (Mus musculus [15]): Active; N6 More Efficacious Than Ismn
Activity (Mus musculus [16]): Active
Activity (Mus musculus [17]): Active
Activity [18]: Toxic

CN(N=O)c1ccc(OCc2cc(Cl)ccc2[N+](=O)[O-])cc1
Activity [1]: <5%

CN(N=O)c1ccc(OCc2c(Cl)cccc2[N+](=O)[O-])cc1
Activity [1]: <5%
Activity (H9c2 [2]): Active

CN(N=O)c1ccc(OCc2ccccc2[N+](=O)[O-])cc1
Activity [1]: <5%
Activity (H9c2 [2]): Active

CN(N=O)c1ccc(OCc2ccc([N+](=O)[O-])cc2)cc1
Activity [1]: <5%
Activity (H9c2 [2]): Active

Cc1ccc([N+](=O)[O-])c(COc2ccc(N(C)N=O)cc2)c1
Activity [1]: <5%

CN(N=O)c1ccc(OCc2ccc(Cl)cc2[N+](=O)[O-])cc1
Activity [1]: <5%

Cc1cc(COc2ccc(N(C)N=O)cc2)ccc1[N+](=O)[O-]
Activity [1]: <5%

CN(N=O)c1ccc(OCc2ccc([N+](=O)[O-])cc2Cl)cc1
Activity [1]: <5%
Activity (H9c2 [2]): Active

CN(N=O)c1ccc(OCc2ccc(Br)cc2[N+](=O)[O-])cc1
Activity [1]: <5%

Cc1ccc(COc2ccc(N(C)N=O)cc2)c([N+](=O)[O-])c1
Activity [1]: <5%
